Assay [1] deals with T1, BRAF (Homo sapiens, UniProt P15056).
T1 construct: GST; purchased Millipore Sigma B4062-10UG
The experiment in a line: BRAF kinase activity assay (ADP-Glo). Type of assay: biochemical. As to conditions: Table 3; 10 μM ATP, kinase-dead MEK1 substrate. In outline: (§1)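 GST-tagged kinase (0.375 nM) with 75 nM kinase-dead MEK1 and 10 μM ATP in HEPES pH 7.5 buffer, 2 h at 30° C, nine concentrations 100–0.01 nM, 0.05% DMSO. ADP-Glo luminescence; % inhibition vs DMSO and substrate-only blanks, IC50 by four-parameter fit.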

Assay [2] deals with T2, CRAF (Homo sapiens, UniProt P04049).
T2 construct: fused on or other part: GST tag (N-terminal according to the vendor's product)
T2 sequence (P04049 whole entry Y340E/Y341E, form open, the tested form may be a part): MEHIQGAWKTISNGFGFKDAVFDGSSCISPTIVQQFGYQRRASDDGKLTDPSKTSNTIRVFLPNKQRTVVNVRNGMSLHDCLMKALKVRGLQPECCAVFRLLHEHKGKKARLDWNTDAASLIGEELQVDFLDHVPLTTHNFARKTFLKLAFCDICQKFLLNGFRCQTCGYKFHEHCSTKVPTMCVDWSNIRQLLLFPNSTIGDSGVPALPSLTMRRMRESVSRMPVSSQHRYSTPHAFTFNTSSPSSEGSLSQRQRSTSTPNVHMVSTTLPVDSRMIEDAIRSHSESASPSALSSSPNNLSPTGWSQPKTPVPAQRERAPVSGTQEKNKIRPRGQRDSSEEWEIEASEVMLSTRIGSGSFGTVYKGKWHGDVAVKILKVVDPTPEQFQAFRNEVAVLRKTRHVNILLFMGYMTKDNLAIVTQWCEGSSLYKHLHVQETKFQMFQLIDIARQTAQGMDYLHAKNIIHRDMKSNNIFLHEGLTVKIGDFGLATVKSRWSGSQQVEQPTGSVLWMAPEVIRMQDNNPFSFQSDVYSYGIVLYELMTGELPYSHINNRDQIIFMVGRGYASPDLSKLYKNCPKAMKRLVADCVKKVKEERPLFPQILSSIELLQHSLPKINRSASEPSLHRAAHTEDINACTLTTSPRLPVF
Description: CRAF kinase activity assay (ADP-Glo). The class given is biochemical. As to conditions: Table 3; 10 μM ATP, kinase-dead MEK1 substrate. In a few lines:
as §1

Assay [3] relates to pERK, HCT116 cells. Description: Phospho-ERK inhibition, AlphaLISA p-ERK 1/2, HCT-116. Type of assay: cell-based, human. As to conditions: Table 3; for IC50: HCT116 cells (KRAS G13D), 1 h treatment; for HCT116 pERK (Ymin %): lowest % inhibition value of the pERK IC50 curve, above −20% = no paradoxical induction. In a few lines: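 Cells in RPMI-1640 with 5% FBS plated overnight, then treated 1 h with ten-point dilutions (10 μM to 0.33 nM, 0.5% DMSO). Lysate p-ERK1/2 (Thr202/Tyr204) read by AlphaLISA SureFire Ultra; % inhibition normalised to DMSO and 1 μM trametinib background, IC50 by four-parameter fit.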

T1 sequence (P15056 whole entry): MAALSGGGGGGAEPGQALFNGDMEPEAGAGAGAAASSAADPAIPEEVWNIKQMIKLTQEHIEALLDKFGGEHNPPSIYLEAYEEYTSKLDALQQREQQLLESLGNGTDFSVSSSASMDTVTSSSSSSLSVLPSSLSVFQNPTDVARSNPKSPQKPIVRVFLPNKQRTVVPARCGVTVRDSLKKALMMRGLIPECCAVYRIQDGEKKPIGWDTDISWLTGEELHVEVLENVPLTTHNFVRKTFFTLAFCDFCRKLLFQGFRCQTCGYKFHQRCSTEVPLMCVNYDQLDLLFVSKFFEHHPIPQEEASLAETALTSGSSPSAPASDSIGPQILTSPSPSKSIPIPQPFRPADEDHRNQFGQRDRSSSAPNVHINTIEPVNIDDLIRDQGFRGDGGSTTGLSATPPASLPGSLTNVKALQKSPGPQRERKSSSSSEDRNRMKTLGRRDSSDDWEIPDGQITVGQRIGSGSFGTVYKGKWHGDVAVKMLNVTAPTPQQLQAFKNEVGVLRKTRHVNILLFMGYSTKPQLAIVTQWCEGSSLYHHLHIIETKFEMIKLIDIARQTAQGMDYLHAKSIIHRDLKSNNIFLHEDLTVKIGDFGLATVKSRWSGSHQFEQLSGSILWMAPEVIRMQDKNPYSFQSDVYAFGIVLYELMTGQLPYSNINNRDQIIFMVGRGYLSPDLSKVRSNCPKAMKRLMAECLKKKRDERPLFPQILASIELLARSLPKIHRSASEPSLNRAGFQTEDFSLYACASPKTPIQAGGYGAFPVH

Regarding `CCC1(O)CN(C(=O)c2cn(-c3nc4c(Nc5c(F)ccc(NS(=O)(=O)c6cccc(Cl)c6Cl)c5F)ncnc4s3)c3ccccc23)C1` [Example 95], the values for the IC50 in assay [1], in assay [2] and in assay [3] were 0.001 to 0.01 µM, less than 0.01 µM and less than 0.5 µM, respectively. Also, in assay [3], the “HCT116 pERK (Ymin %)” value is listed as −6%.

For `O=C(c1cn(-c2nc3c(Nc4c(F)ccc(NS(=O)(=O)c5cccc(Cl)c5Cl)c4F)ncnc3s2)c2ccccc12)N1CC(O)(C(F)(F)F)C1` [Example 96], the IC50 is more than 0.01 µM in assay [1], 0.01 to 0.05 µM in assay [2] and 0.5 to 1 µM in assay [3]. Besides, the “HCT116 pERK (Ymin %)” value in assay [3] is listed as −1%.

On to `O=C(c1cn(-c2nc3c(Nc4c(F)ccc(NS(=O)(=O)c5cccc(Cl)c5Cl)c4F)ncnc3s2)c2ccccc12)N1CCC(O)(C(F)(F)F)CC1` [Example 97], for which the IC50 in assay [1] was more than 0.01 µM; in assay [2], 0.01 to 0.05 µM; in assay [3] it was less than 0.5 µM. For the same molecule, the “HCT116 pERK (Ymin %)” value in assay [3] was −10%.

For the molecule `O=C(c1cn(-c2nc3c(Nc4c(F)ccc(NS(=O)(=O)c5cccc(Cl)c5Cl)c4F)ncnc3s2)c2ccccc12)N1C2CCC1CN(CCO)C2` [Example 98], the IC50 in assay [1] is 0.001 to 0.01 µM; in assay [2] it was less than 0.01 µM; in assay [3] (Homo sapiens, HCT-116), less than 0.5 µM.

As to `COc1cccc2c1ncn2-c1nc2c(Nc3c(F)ccc(NS(=O)(=O)c4cccc(Cl)c4Cl)c3F)ncnc2s1` [Example 99], the IC50 in assay [1] is 0.001 to 0.01 µM; in assay [2] it was less than 0.01 µM; in assay [3] (Homo sapiens, HCT-116), less than 0.5 µM.

For the molecule `O=S(=O)(Nc1ccc(F)c(Nc2ncnc3sc(-n4cnc5c(F)cc(OCCO)cc54)nc23)c1F)c1cccc(Cl)c1Cl` [Example 100], the IC50 in assay [1] was 0.001 to 0.01 µM; in assay [2], less than 0.01 µM; in assay [3] (Homo sapiens, HCT-116) it was less than 0.5 µM.

For `CC(C)(O)C1CCCN1C(=O)c1cn(-c2nc3c(Nc4c(F)ccc(NS(=O)(=O)c5cccc(Cl)c5Cl)c4F)ncnc3s2)c2ccc(F)cc12` (stereo not drawn) [Example 101], the concentration for half-maximal inhibition (IC50) in assay [1] was more than 0.01 µM; in assay [2], 0.01 to 0.05 µM; in assay [3] it was less than 0.5 µM. Besides, the “HCT116 pERK (Ymin %)” value in assay [3] stood at 0%.

As to `O=C(c1cn(-c2nc3c(Nc4c(F)ccc(NS(=O)(=O)c5cccc(Cl)c5Cl)c4F)ncnc3s2)c2ccc(F)cc12)N1C2CCC1COC2` [Example 102], the figures for the IC50 in assay [1], in assay [2] and in assay [3] were 0.001 to 0.01 µM, less than 0.01 µM and less than 0.5 µM, respectively. In addition, the “HCT116 pERK (Ymin %)” value in assay [3] is reported as 0%.

For the molecule `Cc1ncn(-c2nc3c(Nc4c(F)ccc(NS(=O)(=O)c5cccc(Cl)c5Cl)c4F)ncnc3s2)c1C` [Example 103], the figures for the IC50 in assay [1], in assay [2] and in assay [3] were 0.001 to 0.01 µM, less than 0.01 µM and 0.5 to 1 µM, respectively. Moreover, in assay [3], the “HCT116 pERK (Ymin %)” value was −7%.

On to `CC(C)(C#N)c1cccc2c1ncn2-c1nc2c(Nc3c(F)ccc(NS(=O)(=O)c4cccc(Cl)c4Cl)c3F)ncnc2s1` [Example 104], for which the values for the IC50 in assay [1], in assay [2] and in assay [3] were 0.001 to 0.01 µM, 0.01 to 0.05 µM and less than 0.5 µM, respectively. Further, the “HCT116 pERK (Ymin %)” value in assay [3] was −10%.

As to `COc1nccc2c1ncn2-c1nc2c(Nc3c(F)ccc(NS(=O)(=O)c4cccc(Cl)c4Cl)c3F)ncnc2s1` [Example 105], the results for the IC50 in assay [1], in assay [2] and in assay [3] were 0.001 to 0.01 µM, less than 0.01 µM and less than 0.5 µM, respectively. Moreover, the “HCT116 pERK (Ymin %)” value in assay [3] is listed as 4%.

Regarding `COCCC(=O)c1cn(-c2nc3c(Nc4c(F)ccc(NS(=O)(=O)c5cccc(Cl)c5Cl)c4F)ncnc3s2)c2ccccc12` [Example 106], the IC50 is more than 0.01 µM in assay [1]; 0.01 to 0.05 µM in assay [2]; 0.5 to 1 µM in assay [3] (Homo sapiens, HCT-116).

For the molecule `O=C(c1cccs1)c1cn(-c2nc3c(Nc4c(F)ccc(NS(=O)(=O)c5cccc(Cl)c5Cl)c4F)ncnc3s2)c2ccccc12` [Example 107], the half-maximal inhibitory concentration (IC50) is more than 0.01 µM in assay [1]; more than 0.05 µM in assay [2]; 1 to 10 µM in assay [3] (Homo sapiens, HCT-116).

As to `CCOc1cccc2c1ccn2-c1nc2c(Nc3c(F)ccc(NS(=O)(=O)c4cccc(Cl)c4Cl)c3F)ncnc2s1` [Example 108], the IC50 in assay [1] is 0.001 to 0.01 µM; in assay [2] it was 0.01 to 0.05 µM; in assay [3] it was less than 0.5 µM. Moreover, the “HCT116 pERK (Ymin %)” value in assay [3] was −10%.

In the case of `O=S(=O)(Nc1ccc(F)c(Nc2ncnc3sc(-n4cnc(-c5ccccc5)c4)nc23)c1F)c1cccc(Cl)c1Cl` [Example 109], the figures for the IC50 in assay [1], in assay [2] and in assay [3] were more than 0.01 µM, more than 0.05 µM and 0.5 to 1 µM, respectively. For the same molecule, in assay [3], the “HCT116 pERK (Ymin %)” value was −13%.

As to `O=C1CCCN1c1cn(-c2nc3c(Nc4c(F)ccc(NS(=O)(=O)c5cccc(Cl)c5Cl)c4F)ncnc3s2)c2ccccc12` [Example 110, 2,3-dichloro-N-[2,4-difluoro-3-[[2-[3-(2-oxopyrrolidin-1-yl)indol-1-yl]thiazolo[5,4-d]pyrimidin-7-yl]amino]phenyl]benzenesulfonamide], the IC50 in assay [1] is 0.001 to 0.01 µM; in assay [2] it was 0.01 to 0.05 µM; in assay [3] (Homo sapiens, HCT-116), less than 0.5 µM.

Consider `O=S(=O)(Nc1ccc(F)c(Nc2ncnc3sc(-n4cnc5c(OCCO)cccc54)nc23)c1F)c1cccc(Cl)c1Cl` [Example 111], for which the results for the half-maximal inhibitory concentration (IC50) in assay [1], in assay [2] and in assay [3] were less than 0.001 µM, less than 0.01 µM and less than 0.5 µM, respectively. Further, the “HCT116 pERK (Ymin %)” value in assay [3] is on record as −10%.

For `Cc1c(F)cccc1S(=O)(=O)Nc1ccc(F)c(Nc2ncnc3sc(-n4cnc5c(C(C)(C)C#N)cccc54)nc23)c1F` [Example 112], the IC50 was 0.001 to 0.01 µM in assay [1], less than 0.01 µM in assay [2] and less than 0.5 µM in assay [3]. The “HCT116 pERK (Ymin %)” value in assay [3] is reported as 7%.

Consider `CC1(O)CCN(c2cccc3c2ncn3-c2nc3c(Nc4c(F)ccc(NS(=O)(=O)c5cccc(Cl)c5Cl)c4F)ncnc3s2)CC1` [Example 113], for which the IC50 in assay [1] is 0.001 to 0.01 µM; in assay [2], 0.01 to 0.05 µM; in assay [3] (Homo sapiens, HCT-116), less than 0.5 µM.

As to `O=S(=O)(Nc1ccc(F)c(Nc2ncnc3sc(-n4ccc5ccccc54)nc23)c1F)c1cccc(Cl)c1Cl` [Example 114], the IC50 was more than 0.01 µM in assay [1], more than 0.05 µM in assay [2] and 1 to 10 µM in assay [3]. In addition, the “HCT116 pERK (Ymin %)” value in assay [3] is −14%.

On to `O=S(=O)(Nc1ccc(F)c(Nc2ncnc3sc(-n4ccc5ncccc54)nc23)c1F)c1cccc(Cl)c1Cl` [Example 115], for which the IC50 was 0.001 to 0.01 µM in assay [1], less than 0.01 µM in assay [2] and less than 0.5 µM in assay [3]. In addition, the “HCT116 pERK (Ymin %)” value in assay [3] is −11%.

For the molecule `Cc1c(Cl)cccc1S(=O)(=O)Nc1ccc(F)c(Nc2ncnc3sc(-n4cnc5c(C(C)(C)C#N)cccc54)nc23)c1F` [Example 116], the IC50 in assay [1] was 0.001 to 0.01 µM; in assay [2] it was 0.01 to 0.05 µM; in assay [3], less than 0.5 µM. For the same molecule, in assay [3], the “HCT116 pERK (Ymin %)” value is given as −3%.

With `COc1ccc(S(=O)(=O)Nc2ccc(F)c(Nc3ncnc4sc(-n5cnc6c(C(C)(C)C#N)cccc65)nc34)c2F)c(C)c1Cl` [Example 117], the IC50 in assay [1] is more than 0.01 µM; in assay [2], 0.01 to 0.05 µM; in assay [3], 0.5 to 1 µM. In addition, the “HCT116 pERK (Ymin %)” value in assay [3] is on record as −15%.

For `COc1ccc(S(=O)(=O)Nc2ccc(F)c(Nc3ncnc4sc(-n5cnc6c(C(C)(C)C#N)cccc65)nc34)c2F)c(C)c1F` [Example 118], the values for the IC50 in assay [1], in assay [2] and in assay [3] were more than 0.01 µM, more than 0.05 µM and less than 0.5 µM, respectively. Also, the “HCT116 pERK (Ymin %)” value in assay [3] is −14%.

Consider `COCCOc1cccc2c1ncn2-c1nc2c(Nc3c(F)ccc(NS(=O)(=O)c4cccc(Cl)c4Cl)c3F)ncnc2s1` [Example 119], for which the IC50 in assay [1] was less than 0.001 µM; in assay [2], less than 0.01 µM; in assay [3], less than 0.5 µM. Also, the “HCT116 pERK (Ymin %)” value in assay [3] was −1%.
